Data published in patent publication US20050009912A1, “Prodrugs of excitatory amino acids” (priority 2001, published 2005).

SMILES	melting point
Cl.N[C@@]1(C(=O)OCc2ccccc2C(F)(F)F)CC[C@H]2[C@H](C(=O)O)[C@H]21	> 175 °C (dec.)
Cl.N[C@@]1(C(=O)OCc2ccc(Cl)cc2Cl)CC[C@H]2[C@H](C(=O)O)[C@H]21 [Example 29, (1S,2S,5R,6S)-2-Amino-bicyclo[3.1.0]hexane-2,6-dicarboxylic acid 2-(2′,4′-dichloro)benzyl ester hydrochloride]	135 to 137 °C
Cl.N[C@@]1(C(=O)OCc2ccccc2F)CC[C@H]2[C@H](C(=O)O)[C@H]21 [Example 31, (1S,2S,5R,6S)-2-Amino-bicyclo[3.1.0]hexane-2,6-dicarboxylic acid 2-(2′-fluoro)benzyl ester hydrochloride]	> 220 °C (dec.)
Cl.N[C@@]1(C(=O)OCc2cc(Cl)ccc2Cl)CC[C@H]2[C@H](C(=O)O)[C@H]21 [Example 33, (1S,2S,5R,6S)-2-Amino-bicyclo[3.1.0]hexane-2,6-dicarboxylic acid 2-(2′,5′-dichloro)benzyl ester hydrochloride]	173 to 175 °C
Cl.N[C@@]1(C(=O)OCc2ccccc2Br)CC[C@H]2[C@H](C(=O)O)[C@H]21 [Example 34, (1S,2S,5R,6S)-2-Amino-bicyclo[3.1.0]hexane-2,6-dicarboxylic acid 2-(2′-bromo)benzyl ester hydrochloride]	190 to 191 °C
Cl.N[C@@]1(C(=O)OCc2cc(F)cc(F)c2)CC[C@H]2[C@H](C(=O)O)[C@H]21 [Example 35, (1S,2S,5R,6S)-2-Amino-bicyclo[3.1.0]hexane-2,6-dicarboxylic acid 2-(31,5′-difluoro)benzyl ester hydrochloride]	98 to 99 °C
Cc1ccc(C)c(COC(=O)[C@]2(N)CC[C@H]3[C@H](C(=O)O)[C@H]32)c1.Cl [Example 41, (1S,2S,5R,6S)-2-Amino-bicyclo[3.1.0]hexane-2,6-dicarboxylic acid 2-(2′,5′-dimethyl)benzyl ester hydrochloride]	70 °C (dec.)
COc1ccccc1COC(=O)[C@]1(N)CC[C@H]2[C@H](C(=O)O)[C@H]21 [Example 48, (1S,2S, SR, 6S)-2-Amino-bicyclo[3.1.0]hexane-2,6-dicarboxylic acid 2-(2′-methoxy)benzyl ester]	195 °C (dec.)
N[C@@]1(C(=O)OCc2cccc(F)c2)CC[C@H]2[C@H](C(=O)O)[C@H]21 [Example 54, (1S, 2S, SR,6S)-2-Amino-bicyclo[3.1.0]hexane-2,6-dicarboxylic acid 2-(3′-fluoro)benzyl ester]	225 °C (dec.)
